Series [1] concerns the target T1, geranylgeranyl protein transferase (GGPT) I (Rattus norvegicus, UniProt P53610+Q04631).
T1 construct: were partially purified from rat brain by ammonium sulfate fractionation followed by Q-Sepharose
As to the kind of experiment: Inhibition of geranylgeranyl protein transferase I (Ras-CVLL as acceptor). It counts as biochemical. The following applies: for IC50: enzyme inhibition. An excerpt: 1. In vitro enzyme assays: Inhibition of farnesyl protein transferase and geranylgeranyl protein transferase.
Both farnesyl protein transferase (FPT) and geranylgeranyl protein transferase (GGPT) I were partially purified from rat brain by ammonium sulfate fractionation followed by Q-Sepharose (Pharmacia, Inc.) anion exchange chromatography essentially as described by Yokoyama et al (Yokoyama, K., et al., (1991), A protein geranylgeranyltransferase from bovine brain: Implications for protein prenylation specificity, Proc. Natl. Acad. Sci USA 88: 5302-5306, the disclosure of which is incorporated herein by reference thereto). Human farnesyl protein transferase was also expressed in E. coli, using cDNA clones encoding both the α and β subunits. The methods used were similar to those published (Omer, C. et al., (1993), Characterization of recombinant human farnesyl protein transferase: Cloning, expression, farnesyl diphosphate binding, and functional homology with yeast prenyl-protein transferases, Biochemistry 32:5167-5176). Human farnesyl protein transferase was partially-purified from the soluble protein fraction of E. coli as described above. […] Two forms of val^12-Ha-Ras protein were prepared as substrates for these enzymes, differing in their carboxy terminal sequence. One form terminated in cysteine-valine-leucine-serine (Ras-CVLS) the other in cystein-valine-leucine-leucine (Ras-CVLL). Ras-CVLS is a substrate for the farnesyl protein transferase while Ras-CVLL is a substrate for geranylgeranyl protein transferase I. The cDNAs encoding these proteins were constructed so that the proteins contain an amino-terminal extension of 6 histidine residues. Both proteins were expressed in Escherichia coli and purified using metal chelate affinity chromatography. The radiolabelled isoprenyl pyrophosphate substrates, [^3H]farnesyl pyrophosphate and [3H]geranylgeranyl pyrophosphate, were purchased from DuPont/New England Nuclear.
The geranylgeranyl protein transferase I assay was essentially identical to the farnesyl protein transferase assay described above, with two exceptions: [^3H]geranylgeranylpyrophosphate replaced farnesyl pyrophosphate as the isoprenoid donor and Ras-CVLL was the protein acceptor.

In series [2] the test system is T24-BAG4 human bladder carcinoma cells expressing an activated H-ras gene. As to the kind of experiment: Cell Mat Assay: tumor cell colony inhibition (tIC50). It counts as cell-based. The following applies: inhibition of tumor cell growth. The procedure, abridged: (§1)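 Serial compound dilutions added 24 h after planting T24-BAG4 cells onto a mat of normal cells, then 14 d colony growth; monolayers glutaraldehyde-fixed and tumor cells X-Gal stained. tIC50 and mIC50 from microscope counts of colonies, cells per colony and mat cell density.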

Series [3] relates to Ras-CVLS processing in COS monkey kidney cells. Kind of series: COS cell assay: Ras-CVLS processing (Western blot). The following applies: COS cells, read-out: Inhibition of Ras Processing IC50. It counts as cell-based. The method in brief:
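COS cells electroporated with Ras-CVLS (farnesyl transferase substrate) cDNA, with drug-containing fresh medium added at 24 h and cells examined at 48 h. TCA-precipitated cellular protein was resolved by SDS gel and immunoblotted with anti-p21 Ras monoclonal and HRP anti-rat IgG to monitor Ras processing.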
In general terms: A western blot detects proteins with antibodies after separation by electrophoresis.

Series [4] deals with Normal human HEPM fibroblasts. Kind of series: Cell Mat Assay: density of mat cells (mIC50). It counts as cell-based. The procedure, abridged: as §1
Series [5] has as its target T2, farnesyl protein transferase (FPT), partially purified from rat brain (Rattus norvegicus, UniProt Q02293+Q04631).
T2 construct: were partially purified from rat brain by ammonium sulfate fractionation followed by Q-Sepharose
Kind of series: Inhibition of farnesyl protein transferase (transfer of [3H]farnesyl to Ras-CVLS). It counts as biochemical. The following applies: read-out: FPT IC50. The method in brief:
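Partially purified farnesyl protein transferase with His6-tagged val12-Ha-Ras-CVLS substrate and [3H]farnesyl pyrophosphate, 30 min at room temperature. Stopped with SDS/TCA, precipitated Ras collected on GF/C filters; percent inhibition relative to DMSO vehicle control.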

Where [6] appears, read: Ras-CVLS farnesylation, partially purified rat brain FPT.

Structures are written as SMILES. Where “and” joins values, the source holds several entries; their conditions need not be identical. Identical values can stand only once. Like-named read-outs stand apart in the source and are kept apart here. Where only a bound is given, the exact number is not on record here.

The values below come from patent US20030055065A1, “Tricyclic amide and urea compounds useful for inhibition of G-protein function and for treatment of proliferative diseases” (priority 1993, published 2003).

Usually IC50 stands for the concentration at which inhibition is half-maximal. In general, melting point refers to the temperature, or range, at which the solid turns liquid.

T1 sequence (P53610 whole entry, one chain of several): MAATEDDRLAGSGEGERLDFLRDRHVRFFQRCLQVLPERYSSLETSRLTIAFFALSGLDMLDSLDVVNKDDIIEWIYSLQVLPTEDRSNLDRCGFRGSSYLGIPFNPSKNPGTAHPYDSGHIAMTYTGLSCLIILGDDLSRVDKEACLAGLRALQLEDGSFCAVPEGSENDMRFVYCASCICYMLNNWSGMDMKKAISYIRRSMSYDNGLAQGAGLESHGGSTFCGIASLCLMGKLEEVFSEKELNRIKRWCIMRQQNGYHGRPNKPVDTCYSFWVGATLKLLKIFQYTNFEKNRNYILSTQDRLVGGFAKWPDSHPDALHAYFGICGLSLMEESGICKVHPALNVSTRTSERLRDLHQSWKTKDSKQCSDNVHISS
T2 sequence (Q02293 whole entry, one chain of several): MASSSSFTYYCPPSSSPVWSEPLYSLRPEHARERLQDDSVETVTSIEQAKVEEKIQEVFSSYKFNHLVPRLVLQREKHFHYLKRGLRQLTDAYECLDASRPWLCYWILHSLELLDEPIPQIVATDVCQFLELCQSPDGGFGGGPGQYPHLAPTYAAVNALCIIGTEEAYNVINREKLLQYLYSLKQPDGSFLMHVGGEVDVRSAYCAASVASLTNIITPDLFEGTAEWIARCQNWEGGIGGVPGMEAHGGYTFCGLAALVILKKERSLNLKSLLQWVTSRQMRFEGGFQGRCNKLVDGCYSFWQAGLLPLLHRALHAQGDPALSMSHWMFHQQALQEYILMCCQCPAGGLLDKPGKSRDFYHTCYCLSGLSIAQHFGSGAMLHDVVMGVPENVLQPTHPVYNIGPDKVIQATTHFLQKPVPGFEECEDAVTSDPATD

Take `O=C(Cc1cc[n+]([O-])cc1)N1CCC(=C2c3ccc(Cl)cc3CCc3cccnc32)CC1` [227 (5.102)]: the IC50 in series [1] is greater than 41 µM; in series [2], 4 µM; in series [3], 1 µM; in series [4], greater than 50 µM.
Regarding `O=C(c1ccncc1)N1CCC(=C2c3ccc(Cl)cc3CCc3cccnc32)CC1` [Example 15], the melting point lay within 176 to 178 °C. The IC50 in series [5] (setting [6]) came to 4.7 µM.
Take `O=C(c1cc[n+]([O-])cc1)N1CCC(=C2c3ccc(Cl)cc3CCc3cccnc32)CC1` [Example 22]: the melting point is 228 °C (dec.). In series [5] (setting [6]), the IC50 amounted to 6 µM.
In the same order, the values of `CN1C(=O)C(CCC(=O)N2CCC(=C3c4ccc(Cl)cc4CCc4cccnc43)CC2)NC1=S` (stereo not shown) [Example 23] are 205 to 207 °C and 6 µM.
In the same order, the values of `O=C1CCC(C(=O)N2CCC(=C3c4ccc(Cl)cc4CCc4cccnc43)CC2)=NN1` [Example 35] are 190 to 193 °C and 9.9 µM.
In the same order, the values of `O=C(C(CO)c1ccccc1)N1CCC(=C2c3ccc(Cl)cc3CCc3cccnc32)CC1` (stereo not shown) [Example 41, 8-chloro-1-[ -(2-hydroxy-1-phenylethylcarbonyl)-4-piperidylidene]-6,11-dihydro-5H-benzo[5,6]-cyclohepta-[1,2-b]pyridine] are 92.7 to 93 °C and 6.1 µM.
Consider `O=C(Cc1ccc(Br)cc1)N1CCN(C2c3ccc(Cl)cc3CCc3cccnc32)CC1` (stereo not shown) [Example 77], for which the IC50 was greater than 39 µM in series [1], greater than 50 µM in series [2], 9.2 µM in series [3] and greater than 50 µM in series [4].
Regarding `O=C(C(=O)N1CCC(=C2c3ccc(Cl)cc3CCc3cccnc32)CC1)c1c[nH]c2ccccc12` [Example 219], the melting point fell in the range of 192 to 193 °C. In addition, in series [5] (setting [6]), the IC50 is 6.64 µM.
`O=C(Cc1cc[n+]([O-])cc1)N1CCC(=C2c3ccc(Cl)cc3CCc3cccnc32)CC1` [Example 227]: the melting point fell in the range of 128 to 130 °C.
With `O=C(Cc1cc[n+]([O-])cc1)N1CCC(C2c3ccc(Cl)cc3CCc3cccnc32)CC1` (stereo not shown) [Example 234], the IC50 was greater than 43 µM in series [1]; 3.1 µM in series [2] (Homo sapiens); 2.2 µM in series [3] (Primates, COS); greater than 50 µM in series [4] (Homo sapiens, Fibroblast); 0.33 µM in series [5] (setting [6]).
Consider `CO[C@](C(=O)N1CCC(=C2c3ccc(Cl)cc3CCc3cccnc32)CC1)(c1ccccc1)C(F)(F)F` [Example 287], for which the IC50 in series [1] was greater than 40 µM; in series [3] (Primates, COS), greater than 10 µM; in series [4] (Homo sapiens, Fibroblast), greater than 50 µM; in series [5] (setting [6]), 0.72 µM and 5.02 µM.
Turning to `CC(C)(C(=O)N1CCC(=C2c3ccc(Cl)cc3CCc3cccnc32)CC1)c1ccccc1` [Example 289], the IC50 in series [1] was greater than 40 µM; in series [2] (Homo sapiens) it was 12.5 µM; in series [2], 18 µM; in series [3] (Primates, COS), greater than 10 µM; in series [4] (Homo sapiens, Fibroblast) it was greater than 50 µM; in series [5] (setting [6]), 1.44 µM and 1.4 µM.
On to `O=C(Nc1ccncc1)N1CCC(=C2c3ccc(Cl)cc3CCc3cccnc32)CC1` [Example 291], for which the IC50 in series [1] was greater than 46 µM; in series [2] (Homo sapiens), 18 µM; in series [3] (Primates, COS), 3.6 µM; in series [4] (Homo sapiens, Fibroblast) it was greater than 50 µM; in series [5] (setting [6]), 0.87 µM.
In the same order, the values of `O=C(Nc1cccnc1)N1CCC(=C2c3ccc(Cl)cc3CCc3cccnc32)CC1` [Example 292] are greater than 44 µM, 6.25 µM, 6.8 µM, greater than 50 µM and 0.99 µM.
Turning to `O=C(Nc1ccccc1)N1CCC(=C2c3ccc(Cl)cc3CCc3cccnc32)CC1` [Example 293], the IC50 in series [1] was greater than 40 µM; in series [2] (Homo sapiens), 12.5 µM; in series [3], 6.5 µM; in series [3] (Primates, COS) it was greater than 11.1 µM; in series [4] (Homo sapiens, Fibroblast), greater than 50 µM; in series [5] (setting [6]), 1.76 µM and 0.47 µM.
`O=C(OC(C(=O)N1CCC(=C2c3ccc(Cl)cc3CCc3cccnc32)CC1)c1ccccc1)c1ccncc1` (stereo not shown) [Example 298]: the IC50 in series [1] was greater than 35 µM; in series [2] (Homo sapiens), greater than 50 µM; in series [3] (Primates, COS), greater than 9 µM; in series [4] (Homo sapiens, Fibroblast) it was greater than 50 µM; in series [5] (setting [6]), 4.58 µM.
On to `Cc1cnc2c(c1)CCc1cc(Cl)ccc1C2=C1CCN(C(=O)Cc2cccnc2)CC1` [Example 303], for which the IC50 in series [1] is greater than 43 µM; in series [2] (Homo sapiens), 8 µM; in series [3] (Primates, COS), 3.4 µM; in series [4] (Homo sapiens, Fibroblast) it was greater than 50 µM; in series [5] (setting [6]) it was 0.55 µM.
In the same order, the values of `O=C(Cc1ccncc1)N1CCC(=C2c3cc(Cl)c(Cl)cc3CCc3cccnc32)CC1` [Example 311] are 41.3 µM, 10 µM, 9.5 µM, greater than 50 µM and 0.61 µM.
In the same order, the values of `O=C(Nc1ccccc1)N1CCC(C2c3ccc(Cl)cc3CCc3cccnc32)CC1` (stereo not shown) [Example 312] are greater than 46 µM, 12.5 µM, 3.8 µM, greater than 50 µM and 0.9 µM.
Take `O=C(Nc1cccnc1)N1CCC(C2c3ccc(Cl)cc3CCc3cccnc32)CC1` (stereo not shown) [Example 313]: the IC50 in series [1] is greater than 46 µM; in series [2] (Homo sapiens) it was 6.25 µM; in series [3] (Primates, COS) it was 1.5 µM; in series [4] (Homo sapiens, Fibroblast), greater than 50 µM; in series [5] (setting [6]), 0.97 µM.
`O=C(Nc1ccncc1)N1CCC(C2c3ccc(Cl)cc3CCc3cccnc32)CC1` (stereo not shown) [Example 314]: the IC50 is greater than 46 µM in series [1]; 4 µM in series [2] (Homo sapiens); 3 µM in series [3] (Primates, COS); greater than 50 µM in series [4] (Homo sapiens, Fibroblast); 0.83 µM in series [5] (setting [6]).
In the same order, the values of `CC(C)(C(=O)N1CCC(C2c3ccc(Cl)cc3CCc3cccnc32)CC1)c1ccccc1` (stereo not shown) [Example 316] are greater than 43 µM, 25 µM, 18.4 µM, greater than 50 µM and 1.26 µM.
Consider `O=C(Cc1cccnc1)N1CCN(C2c3ccc(Cl)cc3CCc3cc(Br)cnc32)CC1` (stereo not shown) [Example 351], for which the IC50 in series [1] was 1000 µM; in series [2] (Homo sapiens), 6.25 µM; in series [3] (Primates, COS), 2.8 µM; in series [4] (Homo sapiens, Fibroblast), 25 µM; in series [5] (setting [6]), 0.17 µM.
Turning to `O=C(Cc1cc[n+]([O-])cc1)N1CCC(C2c3ccc(Cl)cc3C=Cc3cc(Br)cnc32)CC1` (stereo not shown) [Example 400-C], the IC50 in series [1] was greater than 38 µM; in series [2] (Homo sapiens), less than 1.6 µM; in series [3] (Primates, COS), 0.7 µM; in series [4] (Homo sapiens, Fibroblast), greater than 25 µM; in series [5] (setting [6]) it was 0.03 µM; in series [5] (enzyme inhibition) it was 0.03 µM.
Take `O=C(Cc1ccc[n+]([O-])c1)N1CCC(C2c3ccc(Cl)cc3C=Cc3cc(Br)cnc32)CC1` (stereo not shown) [Example 400-D]: the IC50 was greater than 38 µM in series [1]; 4 µM in series [2] (Homo sapiens); 2 µM in series [3] (Primates, COS); greater than 25 µM in series [4] (Homo sapiens, Fibroblast); 0.21 µM in series [5] (setting [6]); 0.21 µM in series [5] (enzyme inhibition).
For the compound `O=C(Cc1ccncc1)N1CCC(C2c3ccc(Cl)cc3C=Cc3cc(Br)cnc32)CC1` (stereo not shown) [Example 400-G], the IC50 in series [1] was greater than 39 µM; in series [2] (Homo sapiens) it was 1.6 µM; in series [3] (Primates, COS) it was 0.58 µM; in series [4] (Homo sapiens, Fibroblast), greater than 25 µM; in series [5] (setting [6]), 0.024 µM; in series [5] (enzyme inhibition), 0.024 µM.
As to `O=C(CN1CCS(=O)(=O)CC1)N1CCC(=C2c3ccc(Cl)cc3CCc3cc(Br)cnc32)CC1` [Example 410-G], in series [1] ((33) μM), the “GGPT inhibition at the concentration in parentheses” value is recorded as 32 (33). Moreover, the IC50 came out at 4 µM in series [3] (Primates, COS); 0.21 µM in series [5] (setting [6]); 0.21 µM in series [5] (enzyme inhibition).
As to `O=C(Cc1ccnc(Br)c1)N1CCC(=C2c3ccc(Cl)cc3CCc3cc(Br)cnc32)CC1` [Example 506], the melting point was in the range of 134 to 136.1 °C.
